Series [1] has as its target Sodium channel protein type 5 subunit alpha (Homo sapiens, UniProt Q14524). Nature of the series: Inhibition of NaV1.5 (unknown origin) at 5 uM.
The next series deals with Bacillus subtilis. Kind of series: Antimicrobial activity against Bacillus subtilis at 1.5 ug after 18 hrs by paper disk-agar diffusion assay. In kind it is functional, organism-based. Particulars: dose 1.5 µg.
For another series, the system named is Pseudomonas putida. Kind of series: Antimicrobial activity against Pseudomonas putida at 1.5 ug after 18 hrs by paper disk-agar diffusion assay. Particulars: dose 1.5 µg. In kind it is functional, organism-based.
A further series has as its system Candida. Nature of the series: Antimicrobial activity against Candida sp. at 1.5 ug after 18 hrs by paper disk-agar diffusion assay. The format is functional, organism-based. Particulars: dose 1.5 µg. A general note: A growth-free zone around the sample is the usual read-out of agar diffusion tests.

The source made the active and inactive calls. The calls are words filed in the database; no cut-off is given here.

Sequence of Sodium channel protein type 5 subunit alpha (Q14524 whole entry, the tested form may be a part): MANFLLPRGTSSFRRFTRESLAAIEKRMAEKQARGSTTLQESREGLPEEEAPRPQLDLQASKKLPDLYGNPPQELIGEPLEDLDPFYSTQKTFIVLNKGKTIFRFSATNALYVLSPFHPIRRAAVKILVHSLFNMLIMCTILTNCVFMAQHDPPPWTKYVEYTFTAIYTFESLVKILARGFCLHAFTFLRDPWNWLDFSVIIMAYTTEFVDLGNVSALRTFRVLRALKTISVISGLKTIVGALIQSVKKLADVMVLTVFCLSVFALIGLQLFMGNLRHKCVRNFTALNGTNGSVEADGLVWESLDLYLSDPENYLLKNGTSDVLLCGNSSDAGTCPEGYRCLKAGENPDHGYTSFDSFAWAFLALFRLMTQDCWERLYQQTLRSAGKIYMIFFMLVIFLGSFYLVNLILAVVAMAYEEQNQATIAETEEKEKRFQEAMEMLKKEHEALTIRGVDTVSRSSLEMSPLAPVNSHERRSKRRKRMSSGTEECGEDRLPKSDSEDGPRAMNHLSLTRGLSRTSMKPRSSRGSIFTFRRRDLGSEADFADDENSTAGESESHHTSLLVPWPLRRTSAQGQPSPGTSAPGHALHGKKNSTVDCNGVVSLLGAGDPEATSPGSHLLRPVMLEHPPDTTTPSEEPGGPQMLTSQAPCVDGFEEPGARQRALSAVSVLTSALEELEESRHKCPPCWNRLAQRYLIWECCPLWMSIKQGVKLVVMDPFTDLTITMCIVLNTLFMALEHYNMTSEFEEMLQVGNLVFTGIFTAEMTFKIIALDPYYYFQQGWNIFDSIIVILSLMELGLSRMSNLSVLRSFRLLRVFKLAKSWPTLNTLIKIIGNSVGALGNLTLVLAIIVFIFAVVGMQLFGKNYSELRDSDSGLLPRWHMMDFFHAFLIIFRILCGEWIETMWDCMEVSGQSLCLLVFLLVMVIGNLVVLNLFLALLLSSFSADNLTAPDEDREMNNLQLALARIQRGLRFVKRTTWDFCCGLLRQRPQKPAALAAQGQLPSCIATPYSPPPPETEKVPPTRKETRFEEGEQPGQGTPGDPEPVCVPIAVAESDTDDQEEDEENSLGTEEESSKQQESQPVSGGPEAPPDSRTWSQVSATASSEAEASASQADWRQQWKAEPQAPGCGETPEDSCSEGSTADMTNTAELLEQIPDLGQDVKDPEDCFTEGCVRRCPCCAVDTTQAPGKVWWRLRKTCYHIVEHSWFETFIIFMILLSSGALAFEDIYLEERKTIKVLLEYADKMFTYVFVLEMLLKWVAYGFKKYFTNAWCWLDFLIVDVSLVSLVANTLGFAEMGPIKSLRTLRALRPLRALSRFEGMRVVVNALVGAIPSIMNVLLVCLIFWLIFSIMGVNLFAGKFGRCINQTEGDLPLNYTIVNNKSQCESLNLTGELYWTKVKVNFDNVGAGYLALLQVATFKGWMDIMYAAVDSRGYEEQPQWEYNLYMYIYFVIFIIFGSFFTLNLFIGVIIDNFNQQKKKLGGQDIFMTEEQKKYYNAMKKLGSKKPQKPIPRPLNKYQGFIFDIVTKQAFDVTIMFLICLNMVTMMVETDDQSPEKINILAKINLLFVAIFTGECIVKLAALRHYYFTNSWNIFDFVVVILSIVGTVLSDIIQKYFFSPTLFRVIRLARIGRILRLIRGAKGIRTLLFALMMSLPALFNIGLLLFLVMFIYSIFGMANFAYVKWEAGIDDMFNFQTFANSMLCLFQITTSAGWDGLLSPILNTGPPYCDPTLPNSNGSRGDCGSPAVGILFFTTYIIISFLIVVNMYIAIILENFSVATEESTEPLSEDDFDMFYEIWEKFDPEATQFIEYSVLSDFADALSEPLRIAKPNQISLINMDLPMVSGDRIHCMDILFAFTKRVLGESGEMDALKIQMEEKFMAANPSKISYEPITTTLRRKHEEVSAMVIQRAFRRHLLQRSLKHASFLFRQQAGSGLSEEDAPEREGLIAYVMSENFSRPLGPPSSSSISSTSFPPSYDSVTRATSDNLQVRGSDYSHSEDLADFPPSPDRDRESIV

`C[C@]1(O)C[C@@H]2CNC(=N)N[C@]2(C)C(=O)C[C@@H]1O`: the “inhibition (INH)” value in series [1] is “Not Active”.
With `C[C@]12NC(=N)NC=C1C[C@]1(C)O[C@@]2(O)CC1=O`, the result with Bacillus subtilis, in the series on Pseudomonas putida and with Candida was inactive. In series [1], the “inhibition (INH)” value is given as “Not Active”.
With `C[C@]12NC(=N)NC[C@H]1C[C@]1(C)O[C@@]2(O)CC1=O`, the “inhibition (INH)” value in series [1] is “Not Active”.
On to `C[C@]12NC(=N)NC=C1C[C@]1(C)O[C@@]2(O)C[C@@H]1O`, for which the outcome in the series on Bacillus subtilis, with Pseudomonas putida and with Candida was inactive. The “inhibition (INH)” value in series [1] is “Not Active”.
On to `C[C@@]12NC(=N)N[C@H]3O[C@H]4C[C@]1(O)O[C@@]4(C)C[C@H]32`, for which the “inhibition (INH)” value in series [1] is on record as “Not Active”.
In the case of `C[C@]12NC(=N)NC[C@H]1C[C@]1(C)O[C@@]2(O)C[C@@H]1O`, the “inhibition (INH)” value in series [1] is “Not Active”.

The values are drawn from ChEMBL document CHEMBL4665796 (2020).
